Laboratory results published in article PMC7203245, “Lacosamide intake during pregnancy increases the incidence of foetal malformations and symptoms associated with schizophrenia in the offspring of mice” (Scientific Reports, 2020).
Marks after values point to notes of the source that are not given here.

Tests used:
[1] = tested on: adult male mice; assay: Motor activity and exploration in the open field; format: in vivo; conditions: high-dose LCM in utero; 3–5 month old mice; 5 minutes
Experimental: (§1) All trials were performed by an experimenter blind to the drug treatment.
Motor activity in the open field. To evaluate locomotor and exploratory activity, mice were placed in an open field for 5 minutes (38 x 21 x 15 cm: Cybertec S.A., Madrid, Spain). This apparatus consisted of a walled platform containing infrared (IR) emitters and sensors coupled to an actimeter, and the movement sensor was connected to a computer that recorded the number of times the mouse interrupted the IR beams/min. Exploratory activity, was determined through the time the mice interacted with two different objects in a 15 minute session.

[2] = tested on: pups; assay: Litter loss, neonatal lethality and body weight of pups born to dams given LCM during gestation; format: in vivo, mice; conditions: for weight gain from P2 to P13: higher dose
Experimental: (§2) Thus, we used 10, 40, 80 and 120 mg/kg in mice, which corresponded to 56.7, 227, 454 and 681 mg/day in humans, considering an average weight of human to be 70 kg and that of mice to be 30 gr[52],[55]. Controls were administered the vehicle alone: saline solution 0.9% w/v. […] A total of 32 dams were initially treated daily, two days before mating and until the 14th day post-coitus. […] In the breastfeeding period, females were not under treatment given that a person will bottle feed the baby if they were on medication.
In this part of the study, dams were treated until the day of delivery. After analysing the embryo toxicity data, the treatments were categorized as controls (saline vehicle solution alone), low dose (40 mg/kg) and high dose (120 mg/kg). […] The day of birth was designated as postnatal day (P) P0 and the litter size delivered by each dam was recorded, checking each pup for gross abnormalities. Pups were nursed by their natural dams until weaning and from PD 2, the pups were weighed and neonatal behavioural tests were carried out on 12 control mice, 12 low dose and 10 high dose mice from 7 litters. During testing whole litters were separated from the dams and maintained for 30 min in a warm environment. At this stage, males and females were pooled for neurodevelopmental screening. All testing was performed between 07:30 a.m. and 12:00 a.m., and the mice were weighed before performing the tests.

[3] = tested on: developing embryos; assay: Embryo development at E14.5 after daily LCM administration to dams (litters, resorptions, litter size, malformations); format: in vivo, mice; conditions: for CR length (cm): crown-rump
Experimental: as §2
Maternal weights were assessed at the end of the treatment periods. After 14.5 days of gestation (embryonic day14.5, E14.5), blood was extracted from the orbital sinus of the pregnant dams under anaesthesia (70 mg/kg Thiobarbital: Braun Medical S.A. Spain), as described previously[56] and sacrificed by neck dislocation immediately after. Blood samples were centrifuged immediately, and the serum was collected and stored at -80 °C for further chemical analysis.
The E14.5 embryos were collected and fixed in 4% paraformaldehyde for 4 h and then kept at 4 °C in 70% ethanol. The litter size of each dam was recorded, and embryos were assessed for external malformations and photographed on a stereomicroscope (SteREO Discovery V8 + AxioCam Erc8, Zeiss, Oberkochen, Germany). The crown-rump lengths of embryos were measured in the photographs using ImageJ software (downloaded as a free software package from the public domain: http://rsb.info.nih.gov/ij/download.html) and based on the reference points described previously. Embryos were then embedded in paraffin, sectioned at 10, 7 and 5 μm, and stained with Ehrlich Haematoxylin & Eosin (H&E) for histology analysis. Representative sections were selected from at least three embryos for each condition and photographed on an Olympus (Tokyo, Japan) BX-61 photomicroscope.

[4] = tested on: adult male mice; assay: Sociability test; format: in vivo
Experimental: as §1
Sociability test. The social testing apparatus consisted of a rectangular arena (55 x 40 x 40 cm) in which a small, round wire cage (11 cm in height, with a bottom diameter of 9 cm, vertical bars 0.5 cm and horizontal bars spaced 1 cm apart) was placed in a corner, allowing nose contact between the bars but preventing fighting. The subject mouse was first placed in the arena for 5 minutes with the round wire cage empty. After that, a strange mouse was place in the round cage in […] and the subject was allowed to explore the entire social test box for 10 min. The time spent around the empty and occupied cage was measured with the aid of the camera fitted to the top of the box.

[5] = higher dose (120 mg/kg) to dams during gestation
[6] = lower dose (40 mg/kg) to dams during gestation
[7] = 10 mg/kg LCM daily i.p. to dams
[8] = 40 mg/kg LCM daily i.p. to dams
[9] = 80 mg/kg LCM daily i.p. to dams
[10] = 120 mg/kg LCM daily i.p. to dams
[11] = High doses (80 or 120 mg/kg LCM daily i.p. to dams)
[12] = High doses (80 or 120 mg/kg LCM daily i.p. to dams), mean ± S.E.M., p < 0.05
[13] = Low doses (10 or 40 mg/kg LCM daily i.p. to dams)

Structure (SMILES): COC[C@@H](NC(C)=O)C(=O)NCc1ccccc1 [LCM, R-2-acetamido-N-benzyl-3-methoxypropionamide]
- locomotor activity in open field [1]: enhanced locomotor activity
- dams that never gained weight, suggesting that they lost their litters ([2]; 40 mg/kg LCM daily from second day of gestation to birth): 1/5
- dams that never gained weight, suggesting that they lost their litters ([2]; 120 mg/kg LCM daily from second day of gestation to birth): 2/8
- body weight differences in adults ([2]; both LCM doses (40 and 120 mg/kg in utero), adult mice): disappeared
- neonatal lethality (%) [2, 5]: 15.38%
- neonatal lethality (pups) [2, 5]: 10/65
- weight gain from P2 to P13 ([2]; litter that died in the perinatal nursing period): 2 g
- weight gain from P2 to P13 ([2]; other pups under the same condition): 6.1 g
- neonatal lethality (%) [2, 6]: 9%
- neonatal lethality (pups) [2, 6]: 3/33
- pups of an entire litter that died in the perinatal nursing period (P15-16) ([2]; one dam exposed to higher dose): 11 pups
- Emb (no.) [3, 7]: 117 no.
- Lost Litter (no.) [3, 7]: 0 no.
- Malformation (%) [3, 7]: 4.3%
- Resorpt (%) [3, 7]: 4%
- CR length (cm) [3, 7]: 1.18 cm
- Emb (no.) [3, 8]: 67 no.
- Lost Litter (no.) [3, 8]: 0 no.
- Malformation (%) [3, 8]: 7.4%
- Resorpt (%) [3, 8]: 1.5%
- CR length (cm) [3, 8]: 1.09 cm
- Emb (no.) [3, 9]: 41 no.
- Lost Litter (no.) [3, 9]: 1 no.
- Malformation (%) [3, 9]: 12.2%
- Resorpt (%) [3, 9]: 0%
- CR length (cm) [3, 9]: 1.03 cm
- Emb (no.) [3, 10]: 73 no.
- Lost Litter (no.) [3, 10]: 1 no.
- Malformation (%) [3, 10]: 2.7%
- Resorpt (%) [3, 10]: 2.5%
- CR length (cm) [3, 10]: 1.08 cm
- Emb (no.) [3, 11]: 114 no.
- Lost Litter (no.) [3, 11]: 2 no.
- Malformation (%) [3, 11]: 6.1%
- Resorpt (%) [3, 11]: 1.75%
- CR length (cm) [3, 12]: 1.06 ± 0.08^b cm
- Emb/dam [3, 12]: 9.5 ± 0.4^b
- Emb (no.) [3, 13]: 184 no.
- Lost Litter (no.) [3, 13]: 0 no.
- Malformation (%) [3, 13]: 5.4%
- Resorpt (%) [3, 13]: 3.2%
- CR length (cm) ([3]; Low doses (10 or 40 mg/kg LCM daily i.p. to dams), mean ± S.E.M.): 1.1 ± 0.1 cm
- number of embryos/litter ([3]; high doses of LCM (80 or 120 mg/kg), p = 0.02): 9.5 ± 0.4 embryo/litter
- number of embryos/litter ([3]; low doses of LCM (10 or 40 mg/kg)): 12.2 ± 0.1 embryos/litter
- social interaction with a strange mouse (sniffing time) ([4]; 40 mg/kg in utero): 183.4 ± 11.01 s
- social interaction with a strange mouse (sniffing time) ([4]; 120 mg/kg in utero): 172.0 ± 10.78 s
